Test results taken from patent US7786299B2, “Methods for treating diseases or conditions using dihydropteridinone compounds” (Boehringer Ingelheim Pharma GmbH & Co. KG, priority 2003, dated 2010).

Experiments:
[1] = tested on: HeLaS3 cells; test: Measurement of cytotoxicity on cultivated human tumour cells (AlamarBlue); assay type: cell-based; details: HeLa in Table 1; unit inferred
Procedure, shortened: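 HeLaS3 cervical cancer cells, 1000 cells/well in Ham's F12 with 10% FCS, exposed 72 h to compound (1% DMSO final) in triplicate. AlamarBlue added for further 7 h, fluorescence at ex 530/em 590 nm; IC50 from activity as percent of untreated control, medium-corrected.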

[2] = tested on: H460-VINC; test: Cytotoxicity on H460-VINC cells (Table 1; method not given); assay type: cell-based; details: H460-VINC of Table 1; unit inferred

CCN1CC[C@@H](NC(=O)c2ccc(Nc3ncc4c(n3)N(CCC(C)C)[C@H](C)C(=O)N4C)c(OC)c2)C1 [Example 37]
IC50 [1]: 72 nM | IC50 [2]: 762 nM

COc1cc(C(=O)NCCCN2CCCCC2)ccc1Nc1ncc2c(n1)N(C1CCCC1)C(C)C(=O)N2C (stereo not drawn) [Example 64]
IC50 [1]: 64 nM | IC50 [2]: 894 nM

COc1cc(C(=O)NC2CCN(C(C)C)CC2)ccc1Nc1ncc2c(n1)N(CCC(C)C)C(C)C(=O)N2C (stereo not drawn) [Example 2]
IC50 [1]: 56 nM | IC50 [2]: 971 nM

CC[C@@H]1C(=O)N(C)c2cnc(Nc3ccc(C(=O)NCCCN(C)C)cc3OC)nc2N1CCC(C)C [Example 164]
IC50 [1]: 30 nM | IC50 [2]: 975 nM

CC1C(=O)N(C)c2cnc(Nc3ccc(C(=O)NC4CC5CCC(C4)N5C)cc3)nc2N1C1CCCC1 (stereo not drawn) [Example 68]
IC50 [1]: 92 nM | IC50 [2]: 1240 nM

CCN(CC)CCNC(=O)c1ccc(Nc2ncc3c(n2)N(C2CCCC2)C(C)C(=O)N3C)c(OC)c1 (stereo not drawn) [Example 62]
IC50 [1]: 58 nM | IC50 [2]: 538 nM

CCC1C(=O)N(C)c2cnc(Nc3ccc(C(=O)NC4CCN(C5CCOCC5)CC4)cc3OC)nc2N1C1CCCC1 (stereo not drawn) [Example 116]
IC50 [1]: 6 nM | IC50 [2]: 174 nM

CCC1C(=O)N(C)c2cnc(Nc3ccc(C(=O)NC4CCC(N5CCCC5)CC4)cc3OC)nc2N1C1CCCC1 (stereo not drawn) [Example 138]
IC50 [1]: 43 nM | IC50 [2]: 1140 nM

COc1cc(C(=O)NCCN2CCOCC2)ccc1Nc1ncc2c(n1)N(C1CCCC1)C(C)C(=O)N2C (stereo not drawn) [Example 65]
IC50 [1]: 52 nM | IC50 [2]: 216 nM

COc1cc(C(=O)N[C@H]2CC[C@H](N3CCCC3)CC2)ccc1Nc1ncc2c(n1)N(C1CCCCC1)[C@H](C)C(=O)N2C [Example 98]
IC50 [1]: 77 nM | IC50 [2]: 1320 nM

CC[C@@H]1C(=O)N(C)c2cnc(Nc3ccc(C(=O)NCC(C)(C)CN(C)C)cc3OC)nc2N1CCC(C)C [Example 168]
IC50 [1]: 42 nM | IC50 [2]: 88 nM

CCC1C(=O)N(C)c2cnc(Nc3ccc(C(=O)NCC(C)(C)CN(C)C)cc3OC)nc2N1C(C)C (stereo not drawn) [Example 57]
IC50 [1]: 38 nM | IC50 [2]: 67 nM

CCC1C(=O)N(C)c2cnc(Nc3ccc(C(=O)NC4CCC(N5CCCC5)CC4)cc3OC)nc2N1C1CCCC1 (stereo not drawn) [Example 19]
IC50 [1]: 13 nM | IC50 [2]: 747 nM

COc1cc(C(=O)NC2CCC(N3CCCCC3)CC2)ccc1Nc1ncc2c(n1)N(C1CCCC1)C(C)C(=O)N2C (stereo not drawn) [Example 16]
IC50 [1]: 17 nM | IC50 [2]: 483 nM

COc1cc(C(=O)NC2CCN(C)CC2)ccc1Nc1ncc2c(n1)N(CC(C)(C)C)C(C)C(=O)N2C (stereo not drawn) [Example 145]
IC50 [1]: 43 nM | IC50 [2]: ≥ 3000 nM

COc1cc(C(=O)NCCCN(C)C)ccc1Nc1ncc2c(n1)N(C1CCCC1)[C@H](C)C(=O)N2C [Example 75]
IC50 [1]: 46 nM | IC50 [2]: 557 nM

CCC1C(=O)N(C)c2cnc(Nc3ccc(C(=O)NC4CCC(N5CCCCC5)CC4)cc3OC)nc2N1C1CCCC1 (stereo not drawn) [Example 128]
IC50 [1]: 15 nM | IC50 [2]: 282 nM

COc1cc(C(=O)NC(C)(C)CN2CCCC2)ccc1Nc1ncc2c(n1)N(C1CCCC1)C(C)C(=O)N2C (stereo not drawn) [Example 49]
IC50 [1]: 59 nM | IC50 [2]: 529 nM

COc1cc(C(=O)NC2CCC(N3CCOCC3)CC2)ccc1Nc1ncc2c(n1)N(C1CCCC1)C(C)C(=O)N2C (stereo not drawn) [Example 24]
IC50 [1]: 17 nM | IC50 [2]: 277 nM

C[C@@H]1C(=O)N(C)c2cnc(Nc3ccc(C(=O)NC4CCN(C)CC4)cc3)nc2N1C1CCCCC1 [Example 85]
IC50 [1]: 25 nM | IC50 [2]: 754 nM

COc1cc(C(=O)NC2CC(C)(C)N(C)C(C)(C)C2)ccc1Nc1ncc2c(n1)N(C1CCCCC1)C(C)C(=O)N2C (stereo not drawn) [Example 117]
IC50 [1]: 10 nM | IC50 [2]: 370 nM

COc1cc(C(=O)NC(C)(C)CN2CCCC2)ccc1Nc1ncc2c(n1)N(C(C)C)C(C)C(=O)N2C (stereo not drawn) [Example 56]
IC50 [1]: 64 nM | IC50 [2]: 324 nM

CCN1CCC(NC(=O)c2ccc(Nc3ncc4c(n3)N(C3CCCC3)C(C)C(=O)N4C)cc2)CC1 (stereo not drawn) [Example 18]
IC50 [1]: 40 nM | IC50 [2]: 1760 nM

COc1cc(C(=O)NC2CC(C)(C)N(C)C(C)(C)C2)ccc1Nc1ncc2c(n1)N(C(C)C)[C@H](C)C(=O)N2C [Example 32]
IC50 [1]: 49 nM | IC50 [2]: ≥ 3000 nM

CC1C(=O)N(C)c2cnc(Nc3ccc(C(=O)NC4CCC(N(C)C)CC4)cc3)nc2N1C1CCCC1 (stereo not drawn) [Example 14]
IC50 [1]: 55 nM | IC50 [2]: ≥ 3000 nM

CCC1C(=O)N(C)c2cnc(Nc3ccc(C(=O)NC4CCN(C)CC4)cc3OC)nc2N1C1CCCC1 (stereo not drawn) [Example 46]
IC50 [1]: 12 nM | IC50 [2]: 208 nM

C[C@@H]1C(=O)N(C)c2cnc(Nc3ccc(C(=O)NC4CC(C)(C)N(C)C(C)(C)C4)cc3)nc2N1C1CCCC1 [Example 31]
IC50 [1]: 23 nM | IC50 [2]: ≥ 3000 nM

CC1C(=O)N(C)c2cnc(Nc3ccc(C(=O)NCCCN4CCOCC4)cc3)nc2N1C1CCCC1 (stereo not drawn) [Example 69]
IC50 [1]: 55 nM | IC50 [2]: 633 nM

COc1cc(C(=O)NC2CCN(Cc3ccccc3)CC2)ccc1Nc1ncc2c(n1)N(C1CCCCC1)C(C)C(=O)N2C (stereo not drawn) [Example 115]
IC50 [1]: 16 nM | IC50 [2]: 76 nM

CC[C@@H]1C(=O)N(C)c2cnc(Nc3ccc(C(=O)NC4CCN(C)CC4)cc3OC)nc2N1C1CCCCC1 [Example 96]
IC50 [1]: 11 nM | IC50 [2]: 577 nM

CC[C@@H]1C(=O)N(C)c2cnc(Nc3ccc(C(=O)NCCCCN(CC)CC)cc3OC)nc2N1CCC(C)C [Example 153]
IC50 [1]: 72 nM | IC50 [2]: 2640 nM

CC[C@@H]1C(=O)N(C)c2cnc(Nc3ccc(C(=O)NCCCN4CCCCC4)cc3OC)nc2N1CCC(C)C [Example 169]
IC50 [1]: 44 nM | IC50 [2]: 503 nM

CCC1C(=O)N(C)c2cnc(Nc3ccc(C(=O)NC4CC5CCC(C4)N5C)cc3OC)nc2N1C1CCCC1 (stereo not drawn) [Example 45]
IC50 [1]: 22 nM | IC50 [2]: 792 nM

CCC1C(=O)N(C)c2cnc(Nc3ccc(C(=O)NC4CCC(N5CCOCC5)CC4)cc3OC)nc2N1C(C)C (stereo not drawn) [Example 27]
IC50 [1]: 14 nM | IC50 [2]: 164 nM

CCC1C(=O)N(C)c2cnc(Nc3ccc(C(=O)NC4CC(C)(C)N(C)C(C)(C)C4)cc3OC)nc2N1C1CCCC1 (stereo not drawn) [Example 21]
IC50 [1]: 9 nM | IC50 [2]: 488 nM

CC[C@@H]1C(=O)N(C)c2cnc(Nc3ccc(C(=O)N[C@H]4CC[C@H](N5CCOCC5)CC4)cc3OC)nc2N1C1CCCCC1 [Example 97]
IC50 [1]: 32 nM | IC50 [2]: 66 nM
